Activity calls are given as the source filed them. The rule behind the calls is not given here.
Experiments:
Uterus [1] = assay: Inhibition of oxytocin-induced uterus contraction in non-pregnant Sprague-Dawley rat measured for 300 secs; format: functional, tissue-based
Uterus [2] = assay: Inhibition of oxytocin-induced uterus contraction in 20 days pregnant Sprague-Dawley rat at 10^-10 to 10^-5 M measured for 300 secs; format: functional, tissue-based
Uterus [3] = assay: Inhibition of oxytocin-induced uterus contraction in Sprague-Dawley rat during parturition period at 10^-10 to 10^-5 M measured for 300 secs; format: functional, tissue-based
[4] = target: Rho-associated protein kinase 2 (Homo sapiens) (UniProt O75116); assay: Inhibition of ROCK2 (unknown origin) at 200 uM using MYPT1 as substrate after 30 mins by immunoassay
Chain of Rho-associated protein kinase 2 (Homo sapiens) (O75116 whole entry, looked up): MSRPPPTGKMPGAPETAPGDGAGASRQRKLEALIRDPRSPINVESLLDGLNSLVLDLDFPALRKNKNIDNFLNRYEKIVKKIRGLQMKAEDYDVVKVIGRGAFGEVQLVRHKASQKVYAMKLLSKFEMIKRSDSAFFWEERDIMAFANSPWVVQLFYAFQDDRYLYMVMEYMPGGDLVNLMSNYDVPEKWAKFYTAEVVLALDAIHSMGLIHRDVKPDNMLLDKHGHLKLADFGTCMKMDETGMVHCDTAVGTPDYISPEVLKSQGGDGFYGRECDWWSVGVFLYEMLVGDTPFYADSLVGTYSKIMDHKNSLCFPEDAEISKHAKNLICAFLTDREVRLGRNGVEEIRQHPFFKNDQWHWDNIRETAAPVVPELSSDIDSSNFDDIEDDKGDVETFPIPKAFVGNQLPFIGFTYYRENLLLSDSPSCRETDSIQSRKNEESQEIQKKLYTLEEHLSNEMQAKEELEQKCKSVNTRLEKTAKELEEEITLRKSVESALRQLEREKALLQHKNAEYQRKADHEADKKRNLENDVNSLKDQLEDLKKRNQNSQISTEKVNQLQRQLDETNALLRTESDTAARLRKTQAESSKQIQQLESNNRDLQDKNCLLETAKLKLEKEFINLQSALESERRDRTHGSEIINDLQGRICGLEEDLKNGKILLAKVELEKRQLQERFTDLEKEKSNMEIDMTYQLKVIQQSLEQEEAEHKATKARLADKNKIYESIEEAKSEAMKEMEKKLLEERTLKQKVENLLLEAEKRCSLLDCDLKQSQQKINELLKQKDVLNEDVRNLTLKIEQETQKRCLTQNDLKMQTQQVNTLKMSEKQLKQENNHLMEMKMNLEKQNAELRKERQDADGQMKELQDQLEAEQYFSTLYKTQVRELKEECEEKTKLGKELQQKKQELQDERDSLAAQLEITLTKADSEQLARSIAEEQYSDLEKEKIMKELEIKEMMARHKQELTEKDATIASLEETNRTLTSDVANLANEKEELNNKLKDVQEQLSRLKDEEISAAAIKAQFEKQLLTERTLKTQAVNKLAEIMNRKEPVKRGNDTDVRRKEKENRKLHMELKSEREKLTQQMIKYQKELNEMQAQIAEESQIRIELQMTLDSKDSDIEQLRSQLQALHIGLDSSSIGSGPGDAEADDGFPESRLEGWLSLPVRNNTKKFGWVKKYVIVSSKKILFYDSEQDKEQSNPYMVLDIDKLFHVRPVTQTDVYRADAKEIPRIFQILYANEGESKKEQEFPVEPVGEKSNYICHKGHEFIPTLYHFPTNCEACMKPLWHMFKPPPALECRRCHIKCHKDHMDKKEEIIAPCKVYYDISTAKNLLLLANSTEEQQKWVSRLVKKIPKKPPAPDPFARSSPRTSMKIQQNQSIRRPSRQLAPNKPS

COc1cc2c(cc1OC)C(CC#N)N(C(=O)Nc1cccc(C(F)(F)F)c1)CC2 (stereo not drawn)
Emax (Uterus [1]): 72.2% | IC50 (Uterus [1]): 1250 nM

COc1cc2c(cc1OC)C1(C)N(CC2)C(c2ccccc2)=NN1c1ccc(Cl)cc1 (stereo not drawn)
Emax (Uterus [1]): 53.2% | IC50 (Uterus [1]): 258 nM

COc1ccc(CCNC(=O)C(C)(C)C)cc1OC
Emax (Uterus [1]): 52.8% | IC50 (Uterus [1]): 191 nM

COc1cc2c(cc1OC)C(C(CO)CO)N(C(=S)Nc1ccccc1)CC2 (stereo not drawn)
Emax (Uterus [1]): 52.5% | IC50 (Uterus [1]): 158 nM | inhibition (Uterus [2]): Active | inhibition (Uterus [3]): Active | ROCK2 inhibition activity call (active/not active) [4]: Active

COc1cc2c(cc1OC)C1C(CO)COC(=N)N1CC2 (stereo not drawn)
Emax (Uterus [1]): 50.4% | IC50 (Uterus [1]): 13.3 nM | ROCK2 inhibition activity call (active/not active) [4]: inactive

COc1cc2c(cc1OC)C(C(CO)COC(=O)c1ccccc1)N(CCC#N)CC2 (stereo not drawn)
Emax (Uterus [1]): 53.3% | IC50 (Uterus [1]): 278 nM

O=S(=O)(c1cccc2cnccc12)N1CCCNCC1 [FASUDIL]
Emax (Uterus [1]): 87.4% | IC50 (Uterus [1]): 781 nM | inhibition (Uterus [2]): Active | inhibition (Uterus [3]): Active

COc1cc2c(cc1OC)C1C(COC(=O)Nc3ccccc3)CN1CC2 (stereo not drawn)
Emax (Uterus [1]): 54.5% | IC50 (Uterus [1]): 495 nM

COc1ccc(CCNC2CCCCC2O)cc1OC (stereo not drawn)
Emax (Uterus [1]): 51.7% | IC50 (Uterus [1]): 98.1 nM | ROCK2 inhibition activity call (active/not active) [4]: inactive

CCOc1ccc(CCN(CCO)C2CCCCC2O)cc1OCC (stereo not drawn)
Emax (Uterus [1]): 46.3% | IC50 (Uterus [1]): 41.8 nM | inhibition (Uterus [2]): Active | inhibition (Uterus [3]): Active | ROCK2 inhibition activity call (active/not active) [4]: Active

COc1cc2c(cc1OC)C(C)N(C1CCCCC1O)CC2 (stereo not drawn)
Emax (Uterus [1]): 45.6% | IC50 (Uterus [1]): 90.2 nM | ROCK2 inhibition activity call (active/not active) [4]: inactive

COc1cc2c(cc1OC)C(C(CO)COC(=O)c1ccccc1)N(C(=S)Nc1ccccc1)CC2 (stereo not drawn)
Emax (Uterus [1]): 83.5% | IC50 (Uterus [1]): 1190 nM

C[C@@H](N)[C@H]1CC[C@H](C(=O)Nc2ccncc2)CC1 [Y-27632]
Emax (Uterus [1]): 82.3% | IC50 (Uterus [1]): 505 nM

CCOc1cc2c(cc1OCC)C1C(CO)CS/C(=N\c3ccc(C)cc3)N1CC2 (stereo not drawn)
Emax (Uterus [1]): 82.5% | IC50 (Uterus [1]): 1170 nM

CCOc1cc2c(cc1OCC)CN(C1CCCCC1O)CC2 (stereo not drawn)
Emax (Uterus [1]): 48% | IC50 (Uterus [1]): 37.1 nM | ROCK2 inhibition activity call (active/not active) [4]: inactive

COc1cc2c(cc1OC)C(C1CCc3nc(N4CCOCC4)[nH]c(=O)c3C1)=NCC2 (stereo not drawn)
Emax (Uterus [1]): 47.3% | IC50 (Uterus [1]): 24.2 nM | ROCK2 inhibition activity call (active/not active) [4]: inactive

COc1cc2c(cc1OC)C(C(CO)CO)N(C1CCCC1)CC2 (stereo not drawn)
Emax (Uterus [1]): 54.5% | IC50 (Uterus [1]): 84.5 nM | ROCK2 inhibition activity call (active/not active) [4]: inactive

COc1cc2c(cc1OC)C(C(CO)Cc1ccccc1)NCC2 (stereo not drawn)
Emax (Uterus [1]): 76.6% | IC50 (Uterus [1]): 723 nM

COc1cc2c(cc1OC)C1CCO/C(=N\Cc3ccccc3)N1CC2 (stereo not drawn)
Emax (Uterus [1]): 55.1% | IC50 (Uterus [1]): 522 nM

COc1cc2c(cc1OC)C(c1ccccc1)N(C1CCCC1O)CC2 (stereo not drawn)
Emax (Uterus [1]): 58.8% | IC50 (Uterus [1]): 610 nM

COc1ccc(Cc2nccc3cc(OC)c(OC)cc23)cc1OC [PAPAVERINE]
Emax (Uterus [1]): 98.5% | IC50 (Uterus [1]): 420 nM

C#CC[N+]12CCc3cc(OC)c(OC)cc3C1C(CO)C2 (stereo not drawn)
Emax (Uterus [1]): 54.5% | IC50 (Uterus [1]): 32.2 nM | ROCK2 inhibition activity call (active/not active) [4]: inactive

COc1cc2c(cc1OC)C1C(C)CN1CC2 (stereo not drawn)
Emax (Uterus [1]): 43.7% | IC50 (Uterus [1]): 8.24 nM | ROCK2 inhibition activity call (active/not active) [4]: inactive

CCOc1cc2c(cc1OCC)C(CCO)N(C(=S)Nc1cccc(C(F)(F)F)c1)CC2 (stereo not drawn)
Emax (Uterus [1]): 84.7% | IC50 (Uterus [1]): 1080 nM

COc1cc2c(cc1OC)C1C(Cc3ccccc3)CN1CC2 (stereo not drawn)
Emax (Uterus [1]): 57.2% | IC50 (Uterus [1]): 788 nM

COc1ccc(CC[N+](C)(CCO)C2CCCCC2)cc1OC (stereo not drawn)
Emax (Uterus [1]): 49.6% | IC50 (Uterus [1]): 18.9 nM | ROCK2 inhibition activity call (active/not active) [4]: inactive

CCOc1ccc(/C=C2\NCCc3cc(OCC)c(OCC)cc32)cc1OCC [DROTAVERINE]
Emax (Uterus [1]): 88.8% | IC50 (Uterus [1]): 1940 nM

COc1cc2c(cc1OC)C(C(CO)CO)N(C(=O)c1ccc(C(F)(F)F)cc1)CC2 (stereo not drawn)
Emax (Uterus [1]): 66.4% | IC50 (Uterus [1]): 263 nM

Reference: ChEMBL document CHEMBL4184093, “Effects of newly synthetized isoquinoline derivatives on rat uterine contractility and ROCK II activity” (Bioorg Med Chem Lett, 2018)
